Structures can show the parent of a compound that is named as a salt.
Experiments:
[1] = biological target: histamine-N-methyltransferase (Homo sapiens, UniProt P50135); settings: Horton et al. 2005; cited from earlier work
[2] = tested on: ZIKV MR766 virus strain; assay: Prophylactic treatment of ZIKV infected SCID-Beige mice; type: in vivo; settings: AQ-treated ZIKV infected mice
[3] = tested on: ZIKV (MR766 strain); assay: qRT-PCR of total and (-) strand vRNA in hNPCs treated 24-48 h post-infection (MR766); type: cell-based, Zika virus
Protocol: To further evaluate the therapeutic potential of HH, qRT-PCR analysis was performed to monitor the dynamics of ZIKV vRNA expression (MR766 strain) in hNPCs. Both total and replicating (−) strand of ZIKV vRNAs could be detected at 24 h post-infection, and the vRNA level kept increasing at 36 h and 48 h post-infection (FIG. 2J). […] In addition, to determine the effect of HH on hNPCs derived from different donors, 25 μM HH or DMSO control was added to the hNPCs derived from either of two additional donors at 24 h post-infection. […] Moreover, we evaluated the dynamics of ZIKV vRNA expression (FSS13025 strain) in hNPCs.
To monitor ZIKV dynamics in hNPCs, hNPCs were infected with ZIKV (MR766 strain, MOI=0.125, FSS13025 strain MOI=0.1) for 2 h, and changed to virus-free medium. The cells were maintained in NPC medium with daily medium change. The cells were lysed at the different time points and analyzed using qRT-PCR.
RNA Extraction and qRT-PCR. Total RNA of cultured cells and organs was extracted with RNeasy plus mini kit (Qiagen). vRNA from cell culture supernatant or mouse serum was extracted with QIAampe viral RNA mini kit (Qiagen). […] ZIKV vRNA levels were calculated using a standard curve generated using serial 10-fold dilutions of ZIKV vRNA.

[4] = tested on: ZIKV (FSS13025 strain); assay: Therapeutic treatment of ZIKV (FSS13025 strain) infected SCID-beige mice; type: in vivo; settings: HH 100 mg/kg/day subcutaneously for 7 days from day 7 post-infection
Protocol: (A) Scheme of prophylactic treatment of HH in vivo. HH was administrated to SCID-Beige mice 12 h before infection with MR766 virus strain. HH was injected at a dose of 100 mg/kg/day subcutaneously and euthanized at day 7. (B) qRT-PCR analysis of total ZIKV vRNA in liver, spleen, kidney and brain of ZIKV infected mice. n=12 for liver, spleen and kidney and 20 for brain. (C) qRT-PCR analysis of total ZIKV vRNA in brains of ZIKV-infected mice treated with vehicle (n=14) or HH (n=8). […] (D-F) Immunohistochemical analysis of adult cortex. […] HH prevents infection in all cortical cells. Scale bar=100 μm in (D) and 10 μm in (E, F). (G-I) Immunohistochemical analysis of adult hippocampus. […] HH inhibits infection of all cells in the hippocampus. […] The mice were then euthanized and RNA from brains was analyzed using qRT-PCR. […] The mice were euthanized after 7 days treatment and RNA from brains was analyzed using qRT-PCR. (W, X) qRT-PCR analysis of total vRNA (W) and (−) strand RNA (X) in the brains of mice treated with vehicle (n=8) or HH (n=11) at day 7 post-infection. p values were calculated by one-way repeated measures ANOVA or two-way repeated measures ANOVA with a Bonferroni test for multiple comparisons. *p<0.05, **p<0.01 and ***p<0.001.
To evaluate the therapeutic potential of HH, we first monitored the kinetics of ZIKV infection (MR766 strain) in the adult mouse brain. […]

[5] = tested on: human forebrain organoids; assay: Forebrain organoid proliferation, apoptosis, size and structure after ZIKV infection; type: cell-based
Text: Scale bars, 100 μm. […] Scale bars, 100 μm. […] Scale bars, 50 μm.
Medium was changed every other day.

Sequence of histamine-N-methyltransferase (P50135 whole entry, species assumed): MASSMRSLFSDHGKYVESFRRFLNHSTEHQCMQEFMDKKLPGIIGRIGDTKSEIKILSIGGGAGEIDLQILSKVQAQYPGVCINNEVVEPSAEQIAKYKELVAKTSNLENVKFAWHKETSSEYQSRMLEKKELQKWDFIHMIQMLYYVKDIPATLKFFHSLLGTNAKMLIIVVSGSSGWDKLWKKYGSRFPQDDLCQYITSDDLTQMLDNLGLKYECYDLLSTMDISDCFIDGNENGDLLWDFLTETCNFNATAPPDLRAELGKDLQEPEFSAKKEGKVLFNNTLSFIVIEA

| SMILES | inhibition of histamine-N-methyltransferase [1] | ZIKV infection of adult cortex (immunohistochemistry) [2] | ZIKV infection of adult hippocampus (immunohistochemistry) [2] | ZIKV infection of adult striatum (immunohistochemistry) [2] | total and replicating (-) ZIKV vRNA levels in hNPCs ([3]; 25 μM added at 24 h, 36 h or 48 h post-infection, additional 3 days) | total and replicating (-) strand ZIKV vRNAs in hNPCs from two additional donors ([3]; 25 μM added at 24 h post-infection) | total and replication (-) strand vRNA in mouse brain [4] | ZIKV-associated proliferation (Ki67+) and apoptosis (CAS3+) defects in D20 organoids ([5]; 25 μM HH for 3 days) | ZIKV-induced structural defects in long-term organoid cultures ([5]; 25 μM HH, D20+18) | cross-sectional area of ZIKV infected organoids at D20+18 ([5]; 25 μM HH, mock 1.6, ZIKV 0.4) | neurotoxicity in forebrain organoids ([5]; HH compared with AQ) |
| --- | --- | --- | --- | --- | --- | --- | --- | --- | --- | --- | --- |
| CCN(CC)Cc1cc(Nc2ccnc3cc(Cl)ccc23)ccc1O [AQ, amodiaquine dihydrochloride dihydrate] | potent inhibitor | suppresses infection in adult cortex | suppresses infection in adult hippocampus | suppresses infection in adult striatum | – | – | – | – | – | – | – |
| CN1CCC2=C[C@H](O)[C@H]3OC(=O)c4cc5c(cc4[C@H]3[C@@H]21)OCO5 [HH, hippeastrine hydrobromide] | – | – | – | – | successfully suppressed | consistently suppressed | significantly decreased | completely rescued | successfully rescued | 1.4 mm^2 | did not exhibit similar neurotoxicity as AQ |

Source: patent US11466020B2, “Compounds and compositions for inhibition and elimination of Zika infection and uses for same” (Cornell University, priority 2017, dated 2022)
